Several values for one entry are separate records, joined by “and”; a condition that tells them apart may be missing. Equal entries are not always repeated.
What was measured:
Type in all cases: cell-based, Saccharomyces cerevisiae
RAD54 promoter [1] = experiment: Fluorescence assay of yeast transformed with pWDH443 or pWDH444 (RAD54 promoter linked to S65T GFP), whole cells or cell extracts
Experimental: Light emitted by GFP at 511 nm (after excitation at 488 nm) from yeast cells transformed with pWDH443 and pWDH444 and expressing GFP was measured in a fluorimeter in the absence (controls) or presence of compounds known to induce DNA damage such as Methyl Methane Sulphonate (MMS). Samples were assayed as whole cells or as cell extracts.
Yeast strains Y485 and Y486 in haploid form or Y485/486 in diploid form were in this Example (see above).
A stationary phase culture of cells grown in SD medium was used as the inoculum source. Aliquots (30 μl) of cells were inoculated into 3 ml of SD in 15 ml test tubes. […] The tubes were incubated at 25° C. for 16 h on an orbital shaker at 120 rpm, then transferred to an ice-box whilst maintaining agitation. The cells were then transferred to 1.5 ml eppendorf tubes, harvested by centrifugation (10 s), washed twice in sterile distilled water, and resuspended in 250 μl extraction buffer.
(§1) For whole cell fluorescent measurements, the washed cells were transferred directly to cuvettes containing 2.75 ml sterile distilled water.
For cell extract studies, 100μl of 400–600nm diameter glass beads were added to the tubes of cells which were then placed in a BIO 101 Fastprep FP120 to mechanically disrupt the cells. Following centrifugation for 30 s, the supernatant was transferred to a clean tube. The pellet of beads was washed in a further 250 μl of extraction buffer and this was added to the supernatant from the previous extraction. 200 μl of the pooled extract in 300 μl of water was then transferred to a cuvette.
Fluorescence measurements were performed with a Perkin Elmer LS50 Fluorescence Spectrometer. The excitation and emission wavelengths were set to 488nm and 511 nm, respectively, with a slit width of 10 nm. To correct for variations in cell number/protein extraction efficiency, light absorption was recorded for each cuvette at either 600 nm (for whole cells) or 280 nm (for extracts). The fluorescence values obtained from the fluorometer were then divided by the absorption readings to give the “brightness value”, an arbitrary unit independent of sample concentration. Other data handling details are dealt with either in the text or in the […]

RAD54 promoter [2] = experiment: Whole cell GFP fluorescence of FF18984 transformed with yEGFP-444 or pWDH444; details: for Brightness (BU) + MMS, average: average of three; for Brightness (BU) + MMS: single measurements
Experimental: A stationary phase culture of cells grown in SD medium was used as the inoculum source. Aliquots (30 μl) of cells were inoculated into 3 ml of SD in 15 ml test tubes. Half of the tubes were then supplemented with 0.01% MMS (the remaining tubes left as controls). The tubes were incubated at 25° C. for 16 h on an orbital shaker at 120 rpm, then transferred to an ice-box whilst maintaining agitation. The cells were then transferred to 1.5 ml eppendorf tubes, harvested by centrifugation (10 s), washed twice in sterile distilled water, and resuspended in 250 μl extraction buffer.
as §1
Fluorescence measurements were performed with a Perkin Elmer LS50 Fluorescence Spectrometer. The excitation and emission wavelengths were set to 488nm and 511 nm, respectively, with a slit width of 10 nm. To correct for variations in cell number/protein extraction efficiency, light absorption was recorded for each cuvette at either 600 nm (for whole cells) or 280 nm (for extracts). The fluorescence values obtained from the fluorometer were then divided by the absorption readings to give the “brightness value”, an arbitrary unit independent of sample concentration. Other data handling details are dealt with either in the text or in the
The assessment of GFP fluorescence in whole cells was performed essentially as described in 1.2 (above).

RAD54 promoter [3] = experiment: Western blot of yeast protein extracts with anti-GFP antibody; details: yeast cells transformed with pWDH443 or pWDH444, induced with MMS
Source text: Protein extracts from untransformed yeast cells and yeast cells transformed with both pWDH443 and pWDH444 were used in a Western blot analysis using anti-GFP antibody. GFP was not detected in untransformed cells and was only detected at low levels in uninduced transformed cells.

RAD54 promoter [4] = experiment: Specificity experiment: GFP reporter induction by agents that delay mitosis; details: transformed cells; concentration that inhibited cell growth to a similar extent to the MMS treatment regime
Source text: These experiments involved exposing transformed cells to hydroxyurea and nocodazole which can delay mitosis in different ways. Hydroxyurea interferes with DNA synthesis at two levels: it inhibits ribonucleotide reductase, so limiting the supply of precursors for DNA synthesis, and it inhibits DNA ligase, an enzyme responsible for repairing nicks (single strand breaks) in the DNA backbone. In contrast nocodazole inhibits microtubule formation and thus primarily arrests cell growth by preventing the normal segregation of chromosomes during mitosis.

[5] = FF18984 transformed with pWDH444, whole cells
[6] = FF18984 transformed with yEGFP-444, whole cells

Structure (SMILES) | Time after induction at which fluorescence began to increase (RAD54 promoter [1]; 0.05% MMS) | Change in fluorescence (FIG. 10) (RAD54 promoter [1]; haploid Y486 transfected with pWDH444, cell extracts, 0.02% MMS) | Change in fluorescence (FIG. 10) (RAD54 promoter [1]; haploid Y486 transfected with pWDH444, cell extracts, 0.05% MMS) | Change in brightness relative to untransformed cells also exposed to MMS (FIG. 7) (RAD54 promoter [1]; pWDH443 transformed yeast Y485, Y486 and diploid Y485/486) | Change in fluorescence (RAD54 promoter [1]; pWDH443 transformed yeast Y485, Y486 and diploid Y485/486, 0.002% MMS) | Change in fluorescence (RAD54 promoter [1]; pWDH443 transformed yeast Y485, Y486 and diploid Y485/486, 0.01% MMS) | Change in fluorescence (FIG. 10) (RAD54 promoter [1]; untransformed Y486 cells, 0.02% MMS) | Change in fluorescence (FIG. 10) (RAD54 promoter [1]; untransformed Y486 cells, 0.05% MMS) | Brightness (BU) + MMS, average (RAD54 promoter [2]; [5]) | Brightness (BU) + MMS (RAD54 promoter [2]; [5]) | Brightness (BU) + MMS, average (RAD54 promoter [2]; [6]) | Brightness (BU) + MMS (RAD54 promoter [2]; [6]) | GFP antibody binding in Western blot (RAD54 promoter [3]) | Induction of the GFP reporter gene (RAD54 promoter [4])
COS(C)(=O)=O [MMS, Methyl Methane Sulphonate] | one | increase in fluorescence | increase in fluorescence | increase in brightness | statistically significant increases in fluorescence | statistically significant increases in fluorescence | no significant effect | no significant effect | average = 49 BU | 45 BU and 54 BU and 48 BU | average = 96.7 BU | 100 BU and 97 BU and 93 BU | considerable increase in GFP antibody binding | –
NC(=O)NO [hydroxyurea] | – | – | – | – | – | – | – | – | – | – | – | – | – | no detectable induction of the GFP reporter gene
COC(=O)Nc1nc2ccc(C(=O)c3cccs3)cc2[nH]1 [nocodazole] | – | – | – | – | – | – | – | – | – | – | – | – | – | no detectable induction of the GFP reporter gene
